Source: ChEMBL document CHEMBL1201862, “PubChem BioAssay data set” (2004)
Active and inactive are the calls of the source.

Experiments:
HeLa = assay: ATP-based viability loss in HeLa cells – cell-based, CellTiter-Glo luminescence, cherry-pick samples, cytotoxicity control for MITF activator project, dose response (AID 540259); type: functional; settings: Homo sapiens
[1] = Trypanosoma cruzi growth suppression in host cells – NIH3T3 host cells, beta-gal luminescence, confirmation (AID 2044); type: functional, cell-based;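 also: intracellular parasites grown in NIH/3T3 mouse fibroblasts as host cells; luminescent beta-galactosidase reporter signal from transgenic T. cruzi replicating inside host cells; inhibitors lower the luminescence signal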
[2] = NIH3T3 cell viability loss – ATP luminescence, mouse fibroblasts, counter-screen, dose response (AID 2010); type: functional, cell-based;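 also: cells exposed to compound for about 90 hours before reading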
CAAX prenyl protease 1 = CAAX prenyl protease 1 (Saccharomyces cerevisiae S288c, UniProt P47154); assay: yeast CAAX protease Ste24 inhibition – biochemical, S. cerevisiae, plate reader, cherry-pick, dose response (AID 488815)
Trypsin = Trypsin (Sus scrofa, UniProt P00761); assay: trypsin protease activity blockade – biochemical, quenched peptide fluorescence, cherry-pick, selectivity assay for Rce1 protease inhibitor project, dose response (AID 488789)
CAAX prenyl protease 2 = biological target: T1, CAAX prenyl protease 2 (Homo sapiens, UniProt Q9Y256); assay: inhibition of Ras-converting CAAX protease Rce1 – biochemical, yeast membranes, quenched-peptide fluorescence, cherry-pick, dose response (AID 588849)
T1 sequence (Q9Y256 whole entry): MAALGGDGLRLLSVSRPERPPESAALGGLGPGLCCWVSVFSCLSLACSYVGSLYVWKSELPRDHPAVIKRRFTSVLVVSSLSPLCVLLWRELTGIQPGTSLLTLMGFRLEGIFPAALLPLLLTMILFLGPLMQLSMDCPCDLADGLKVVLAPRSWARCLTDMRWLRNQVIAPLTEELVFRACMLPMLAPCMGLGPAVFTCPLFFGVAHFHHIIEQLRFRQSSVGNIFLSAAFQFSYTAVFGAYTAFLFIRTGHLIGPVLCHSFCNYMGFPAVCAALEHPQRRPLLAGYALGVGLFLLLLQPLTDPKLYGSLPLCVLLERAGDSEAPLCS

[3] = cAMP pathway inhibition in counterscreen cell line – TR-FRET cAMP detection, counter-screen for MC4R biased antagonist project, dose response (AID 602305); type: functional, cell-based;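 also: U2OS cells stimulated with forskolin near its EC80 as the cAMP inducer; potency is for inhibition of forskolin-stimulated cAMP signaling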
[4] = HEK-293T viability loss, compound-treated – cell-based, uHTS hits, cytotoxicity control for B/T-cell NF-kB inhibitor project, dose response (AID 489019); type: functional;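 also: IC50 reflects cytotoxicity as loss of cell viability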
[5] = viability of HCT116 lacking mutant beta-catenin – cell-based, human colon tumor, dose response (AID 1045); type: functional;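 also: HCT116 colon tumor cells with beta catenin knocked out; cells exposed to compound for 60 hours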
[6] = HPDE-C7 pancreatic duct cell viability loss – fluorescence, HTS (AID 430); type: functional, cell-based; settings: Homo sapiens
[7] = viability loss of HPDE-C7K cells – cell-based, fluorescence, HTS, primary screen (AID 431); type: functional; settings: Homo sapiens
Melanocortin receptor 4 = Melanocortin receptor 4 (Homo sapiens, UniProt P32245); assay: inhibitors of MC4R cAMP signaling – cell-based, TR-FRET, biased antagonists, dose response (AID 602298); type: functional;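 also: antagonist potency against agonist-stimulated cAMP production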
Jurkat = assay: blockers of NF-kB activation in T cells – Jurkat, luciferase reporter, luminescence, B- and T-cell, dose response (AID 489004); type: functional, cell-based; settings: Homo sapiens;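 also: NF-kB luciferase reporter Jurkat cells stimulated with PMA plus ionomycin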
[8] = viability of PTEN-deleted HCT116 cells – cell-based, HCT116 PTEN knockout, dose response (AID 1047); type: functional;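 also: HCT116 colon tumor cells with PTEN knocked out; cells exposed to compound for 60 hours before readout; potency for loss of cell viability measured by luminescence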
[9] = biological target: T2, Replicative DNA helicase DnaB (Mycobacterium tuberculosis, UniProt P9WMR3); assay: DnaB intein splicing inhibitors, dose response, biochemical, cell-free fluorescence (AID 449749); type: functional
T2 sequence (P9WMR3 whole entry): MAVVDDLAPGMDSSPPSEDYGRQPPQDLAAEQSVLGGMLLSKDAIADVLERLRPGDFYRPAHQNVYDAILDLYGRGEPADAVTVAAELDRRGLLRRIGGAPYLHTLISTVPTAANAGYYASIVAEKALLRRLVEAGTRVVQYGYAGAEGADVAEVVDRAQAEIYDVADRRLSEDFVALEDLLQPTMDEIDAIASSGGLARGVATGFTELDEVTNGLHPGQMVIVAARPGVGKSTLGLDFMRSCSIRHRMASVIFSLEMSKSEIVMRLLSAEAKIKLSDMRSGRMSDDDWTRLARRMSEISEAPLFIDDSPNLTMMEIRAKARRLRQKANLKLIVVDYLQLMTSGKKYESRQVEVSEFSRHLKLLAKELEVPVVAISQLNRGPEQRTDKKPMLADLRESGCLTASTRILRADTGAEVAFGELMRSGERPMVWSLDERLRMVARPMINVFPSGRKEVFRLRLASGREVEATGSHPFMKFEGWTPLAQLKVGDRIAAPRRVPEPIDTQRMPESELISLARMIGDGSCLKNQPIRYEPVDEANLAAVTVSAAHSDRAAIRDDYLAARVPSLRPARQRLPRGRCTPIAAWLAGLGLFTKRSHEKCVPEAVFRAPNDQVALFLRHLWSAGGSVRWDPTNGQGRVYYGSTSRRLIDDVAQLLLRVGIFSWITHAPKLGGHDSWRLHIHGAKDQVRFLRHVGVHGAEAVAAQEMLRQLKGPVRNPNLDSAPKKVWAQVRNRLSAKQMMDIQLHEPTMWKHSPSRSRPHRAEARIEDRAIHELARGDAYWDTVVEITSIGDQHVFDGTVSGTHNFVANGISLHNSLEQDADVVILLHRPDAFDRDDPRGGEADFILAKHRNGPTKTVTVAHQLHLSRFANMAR

[10] = biological target: T3, Ubiquitin-conjugating enzyme E2 N (Homo sapiens, UniProt P61088); type: functional;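 also: Dose-response confirmation in a TR-FRET assay detecting UBC13-driven polyubiquitin chain formation, inhibition measured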
T3 sequence (P61088 whole entry): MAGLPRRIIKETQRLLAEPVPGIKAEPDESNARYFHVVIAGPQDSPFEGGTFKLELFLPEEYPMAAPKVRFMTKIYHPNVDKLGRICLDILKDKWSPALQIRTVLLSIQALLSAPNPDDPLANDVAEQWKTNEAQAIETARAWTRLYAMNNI

Protein RecA = biological target: T4, Protein RecA (Mycobacterium tuberculosis, UniProt P9WHJ3); assay: Fluorescence Cell-Free Homogeneous Dose Retest to Identify Inhibitors of RecA-Intein Splicing Activity. [Related pubchem assays (depositor defined):AID2097, AID2223, AID489010, AID492950]; type: functional
T4 sequence (P9WHJ3 whole entry): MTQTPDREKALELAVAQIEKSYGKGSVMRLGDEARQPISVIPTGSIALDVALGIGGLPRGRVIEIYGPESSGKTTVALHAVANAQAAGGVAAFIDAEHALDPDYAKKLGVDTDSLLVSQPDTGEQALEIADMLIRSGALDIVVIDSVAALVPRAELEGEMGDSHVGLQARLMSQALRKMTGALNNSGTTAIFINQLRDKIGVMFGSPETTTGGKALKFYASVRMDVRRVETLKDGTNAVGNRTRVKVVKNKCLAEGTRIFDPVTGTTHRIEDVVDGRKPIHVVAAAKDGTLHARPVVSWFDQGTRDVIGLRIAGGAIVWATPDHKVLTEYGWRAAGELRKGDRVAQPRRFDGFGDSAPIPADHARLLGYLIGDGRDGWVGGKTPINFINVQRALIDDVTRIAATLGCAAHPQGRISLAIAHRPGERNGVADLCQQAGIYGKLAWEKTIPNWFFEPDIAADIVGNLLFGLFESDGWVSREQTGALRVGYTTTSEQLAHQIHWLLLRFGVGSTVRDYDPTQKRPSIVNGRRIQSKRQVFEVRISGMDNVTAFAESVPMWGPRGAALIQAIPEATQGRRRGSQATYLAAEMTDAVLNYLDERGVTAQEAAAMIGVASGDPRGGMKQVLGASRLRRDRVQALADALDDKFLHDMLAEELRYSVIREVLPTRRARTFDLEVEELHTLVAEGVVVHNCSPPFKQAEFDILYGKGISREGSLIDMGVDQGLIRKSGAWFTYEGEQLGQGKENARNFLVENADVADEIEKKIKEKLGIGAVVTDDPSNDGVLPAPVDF

[11] = Luminescence Cell-Based Dose Retest to Confirm Inhibitors of Cancer Stem Cells. [Related pubchem assays (depositor defined):AID2717, AID2721]; type: functional; settings: Homo sapiens

Chain of CAAX prenyl protease 1 (P47154 whole entry): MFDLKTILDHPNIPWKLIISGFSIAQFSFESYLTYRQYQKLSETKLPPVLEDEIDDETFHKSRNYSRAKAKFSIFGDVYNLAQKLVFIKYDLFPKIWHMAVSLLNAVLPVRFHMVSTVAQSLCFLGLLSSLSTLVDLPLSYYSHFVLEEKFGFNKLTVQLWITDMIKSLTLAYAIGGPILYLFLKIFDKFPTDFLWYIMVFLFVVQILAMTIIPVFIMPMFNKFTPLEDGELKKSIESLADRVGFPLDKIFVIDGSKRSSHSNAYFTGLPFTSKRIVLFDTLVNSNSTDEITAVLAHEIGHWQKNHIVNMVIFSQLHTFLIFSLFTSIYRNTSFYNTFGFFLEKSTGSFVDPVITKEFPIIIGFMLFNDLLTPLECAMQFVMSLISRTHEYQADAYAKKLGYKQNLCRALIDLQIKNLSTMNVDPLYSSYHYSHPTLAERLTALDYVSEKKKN
Chain of Trypsin (P00761 whole entry): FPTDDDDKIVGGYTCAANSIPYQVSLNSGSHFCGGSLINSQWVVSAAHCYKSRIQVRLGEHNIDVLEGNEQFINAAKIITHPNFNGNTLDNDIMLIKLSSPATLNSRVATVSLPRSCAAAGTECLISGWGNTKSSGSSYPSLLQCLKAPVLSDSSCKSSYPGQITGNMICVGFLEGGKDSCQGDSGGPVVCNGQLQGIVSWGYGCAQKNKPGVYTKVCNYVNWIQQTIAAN
Chain of Melanocortin receptor 4 (P32245 whole entry): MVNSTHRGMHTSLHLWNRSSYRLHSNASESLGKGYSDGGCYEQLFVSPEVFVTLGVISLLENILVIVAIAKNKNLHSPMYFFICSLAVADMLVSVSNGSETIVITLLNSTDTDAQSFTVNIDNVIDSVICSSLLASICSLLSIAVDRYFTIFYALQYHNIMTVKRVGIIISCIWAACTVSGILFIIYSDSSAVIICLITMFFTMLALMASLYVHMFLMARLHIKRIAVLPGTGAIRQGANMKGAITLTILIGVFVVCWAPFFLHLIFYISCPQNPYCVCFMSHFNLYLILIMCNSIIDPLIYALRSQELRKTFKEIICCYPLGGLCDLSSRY

In the case of O=C(N/C=C/c1ccccc1)c1ccccc1, the AC50 (HeLa) was 206 µM (active).
For CCc1ccc(NC(=O)c2cnc(N3CCN(c4ccccn4)CC3)c3ccccc23)cc1, the EC50 [1] was 3.14 µM (active), the EC50 [2] was > 30 µM (not active) and the AC50 (CAAX prenyl protease 1) was 9.95 µM (active). For the same molecule, the AC50 (Trypsin) was 87.7 µM (active) and the AC50 (CAAX prenyl protease 2) was 29.7 µM (active).
For N=c1c2c(-c3ccccc3)c(-c3ccccc3)n(Cc3ccccc3)c2ncn1CCCn1ccnc1, the IC50 [3] was > 64.6 µM (inactive), the EC50 [1] was 2.44 µM (active) and the EC50 [2] was 7.16 µM (active). For the same molecule, the IC50 [4] was 43.2 µM (inactive), the EC50 [5] was 0.613 µM (active) and the EC50 [6] was 5.47 µM (active). For the same molecule, the EC50 [7] was 17 µM (active), the IC50 (Melanocortin receptor 4) was > 64.6 µM (inactive) and the IC50 (Jurkat) was 8.3 µM (active). The EC50 [8] was 0.85 µM (active).
In the case of CCN(Cc1ccccc1)S(=O)(=O)c1ccc(C(=O)N(CCCN(C)C)c2nc3cc(C)cc(C)c3s2)cc1, the AC50 [9] was 7.04 µM (active), the IC50 [10] was > 20 µM (inactive) and the EC50 (Protein RecA) was 17.7 µM (active). The AC50 (CAAX prenyl protease 1) was 17 µM (active) and the AC50 [11] was 4.44 µM (active).
